This note sets out measurements from US20230097553A1 (priority 2020, published 2023).

For data set [1], the system named is 2019-nCoV (2019BetaCoV/Wuhan/WIV04/2019 strain). Put plainly: microbe, parasite or virus in culture. It is filed as cell-based.
Another data set has as its system Ebola virus replicon. Put plainly: microbe, parasite or virus in culture. It is filed as cell-based. The conditions noted are these: for IC50: Zaire ebolavirus.
Data set [2] has as its system avian influenza virus A/GuangZhou/99 (H9N2). Put plainly: organism not typed. In kind it is cell-based.
The nature of data set [3]: Antiviral activity in combination with other antiviral drugs. The conditions noted are these: combined with lopinavir, ritonavir, ribavirin, remdesivir, oseltamivir, tamiflu, lanimivir, peramivir, chloroquine.
Data set [4] has as its system influenza virus A/WSN/33 (H1N1). On the set-up: species or system BALB/c female mice. Conditions: mouse, in vivo.
Data set [5] has as its system COVID-19. Briefly: Compassionate use in small-scale (10 cases) COVID-19 patients. In kind it is in vivo, human.
Data set [6] deals with COVID-19. Put plainly: Compassionate use in large-scale (132 cases) COVID-19 patients. In kind it is in vivo, human. The conditions noted are these: patients who took leflunomide within 18 days of admission.
The test system of a further data set is MDCK cells. Conditions: dog.
Another data set in a line: in vitro. The conditions noted are these: Syrian hamster.
A short description of data set [7]: Drug toxicity by CellTiter-Glo (CC50), 2019-nCoV host cells. Conditions: African green monkey, Vero E6 cells. (In general: ATP-based viability assays read luminescence as a measure of living cells.)
Where [8] appears, read: Severe acute respiratory syndrome coronavirus 2, Vero C1008, 48 h.

Several values for one entry are separate records, joined by “and”; a condition that tells them apart may be missing. Identical values can stand only once. Like-named read-outs stand apart in the source and are kept apart here.

Consider `Cc1oncc1C(=O)Nc1ccc(C(F)(F)F)cc1` [Leflunomide, leflunomide], for which the SI amounted to 21.19 in [1], 10.66 with Ebola virus replicon and 8.58 in [2]. The IC50 was determined as 41.5 µM in data set [1] (setting [8]); 15.3 µM in the data set with Ebola virus replicon (BSR-T7/5, 24 h); 8.12 µM in data set [2] (MDCK). In addition, the “therapeutic effects in combination with other antiviral drugs” value in [3] is “better therapeutic effects”. In data set [4], the “mice rescued from death” value was 50% and 100%. Besides, the “Time to negative conversion after treatment” value was 4 days with COVID-19 [5] (leflunomide experimental group, Number of Patients 1); 8 days in the data set on COVID-19 [5] (leflunomide experimental group, Number of Patients 3); 5 days in the data set with COVID-19 [5] (leflunomide experimental group, Number of Patients 4). Further, the CRP after treatment with COVID-19 [5] (leflunomide experimental group, n = 5, range (5-5), normal 0-10, P value 0.109 vs before) worked out at 5 mg/L. The CRP before treatment in the data set with COVID-19 [5] (leflunomide experimental group, n = 5, range (7.8-120.6), normal 0-10) was found to be 37.4 mg/L. For the same molecule, the “level of C-reactive protein” value in the data set on COVID-19 [5] (small-scale (10 cases), after leflunomide treatment) is “significantly reduced”. The “time to negative conversion (median)” value with COVID-19 [5] (small-scale (10 cases), control group median 11 days, P=0.046) is 5 days. Also, the “time from taking leflunomide (LEF) to negative conversion (VC), median” value with COVID-19 [6] came to 6.5 days. Moreover, the “time from admission (AD) to negative conversion (VC), median” value in the data set on COVID-19 [6] (control group median 25 days) amounted to 16 days. In addition, the CC50 with MDCK cells came out at 69.6 µM; in the data set “in vitro”, 163 µM. The molecule further returned a CC50 at 72 h in data set [7] of 879 µM.
In the case of `C/C(O)=C(\C#N)C(=O)Nc1ccc(C(F)(F)F)cc1` [Teriflunomide, teriflunomide], the results for the SI (in data set [1]; in the data set with Ebola virus replicon; in data set [2]) were 141.75, 32.26 and 53.13, respectively. Besides, the IC50 in data set [1] (setting [8]) was determined as 6 µM; in data set [1] (Severe acute respiratory syndrome coronavirus 2, Vero C1008, read-out: drug concentration at which inhibitory efficiency on virus replication reaches 50%), 1.62 µg/mL; in the data set with Ebola virus replicon (BSR-T7/5, 24 h), 3.41 µM; in the data set with Ebola virus replicon (BSR-T7/5, read-out: drug concentration at which inhibitory efficiency on virus replication reaches 50%), 0.923 µg/mL; in data set [2] (MDCK), 3.36 µM; in [2] (unidentified influenza virus, H9N2, MDCK, read-out: drug concentration at which inhibitory efficiency on virus replication reaches 50%), 0.9 µg/mL. In the data set “in vitro”, this molecule displayed a CC50 of 110 µM.
